Measurements: EP4620954A1, “CDK2 INHIBITOR, PREPARATION METHOD THEREFOR, AND USE THEREOF” (Shandong Luye Pharmaceutical Co., Ltd., priority 2022, dated 2024)
Where two headings read alike, the source gives them in different places.

Experiments:
HCT116 cells = assay: Antagonistic effect assay against HCT116 cell proliferation (CellTitle-Glo); assay type: cell-based; details: Homo sapiens, HCT-116, 72 h treatment, 0.01-10.00 µM, read-out: Antiproliferative IC50
Description: Frozen HCT116 cells were rapidly transferred from liquid nitrogen to a 37 °C water bath and rapidly shaken for thawing. The cell suspension was transferred to a 15 mL centrifuge tube and centrifuged at 1500 rpm for 5 min, and the supernatant was discarded. The cell pellet was resuspended in RPMI-1640 complete medium (containing 10% fetal bovine serum and 1% penicillin/streptomycin) and transferred to a cell culture dish containing 10 mL of medium. The cells were cultured in an incubator at 37 °C/5% CO2. The cells were passaged after adhesion to the wall.
HCT116 cells in the logarithmic growth phase and in good condition were taken, digested with a trypsin solution, resuspended in a certain amount of RPMI-1640 complete medium to form a single-cell suspension, counted on a cell counting plate, and seeded into a 96-well white plate at a density of 800 cells/well. The plate was left to stand for 5 min and then incubated in an incubator at 37 °C/5% CO2 overnight. The next day, the cells were treated with the compound at different concentrations, and the control group was treated with DMSO at the corresponding concentration. The compound, dissolved in DMSO, was diluted in RPMI-1640 complete medium at a ratio of 1:1000 to obtain final concentrations of 10.00 µM, 3.33 µM, 1.11 µM, 0.37 µM, 0.12 µM, 0.04 µM, and 0.01 µM. Each group was set up with 3 replicate wells, and 100 µL of the treatment solution was added to each well. The plate was incubated in an incubator at 37 °C/5% CO2 for 72 h.
After 72 h of treatment, the CellTitle-Glo assay was performed. 100 µL of CellTitle-Glo solution was added to each well of the control and treatment groups. The plate was mixed on an oscillator for 2 min to induce cell lysis. The 96-well plate was incubated at room temperature for 10 min to stabilize the luminescence signal value. The luminescence signal was measured using a microplate reader. The DMSO-treated cell group was used as the control group, and 50% inhibitory concentration (IC50) was calculated according to the median effect equation as follows: [formula]
The IC50 values of the compounds were calculated using GraphPad Prism nonlinear fitting equation. Table 2. Results for the inhibitory effect of the compounds of the present disclosure on HCT116 cell proliferation

[1] = In-vitro liver microsomal stability, human; assay type: in vitro ADME; details: human liver microsomes 0.5 mg/mL, 1 µM, NADPH 1 mM, 37 °C
Description: (§1) Method: The metabolic stability of test substances was evaluated by using human, dog, and SD rat liver microsomes. The test substances were incubated with liver microsomes from different species and NADPH in a water bath at 37 °C. In the incubation system, the final concentration of the test or control sample was 1 µM, the final concentration of liver microsomes was 0.5 mg/mL, the final concentration of NADPH was 1 mM, and the final concentration of MgCl2 was 3 mM. At designated time points (5 min, 10 min, 20 min, 30 min, and 60 min), the reaction was stopped by adding a cold acetonitrile solution containing tolbutamide (at a concentration of 200 ng/mL) as an internal standard. For the 0-min sample, the stop solution was added before the addition of the NADPH working solution. Testosterone and dextromethorphan were used as positive control samples in the same conditions to assess the stability and reliability of the system. After sample pretreatment, semiquantitative analysis was performed using the LC-MS/MS method. The retention times of the analytes and internal standard, the acquisition of chromatograms and the integration of chromatograms were processed using software Analyst (AB Sciex, Framingham, Massachusetts, USA). The remaining percentage of the test samples after 60 min of incubation was calculated, and the test results are shown in Table 3. Table 3. Test data for the compounds of the present disclosure in human, dog, and rat liver microsomes

P-glycoprotein (P-gp) = assay: Permeability and transporter substrate evaluation, Caco-2 monolayer; assay type: in vitro ADME; details: human, Caco-2, Table 4 experimental system, Caco-2, 2.00 µM
Description: (§2) Cell: Caco-2 cells Instrument: water purification equipment, ELGA LabWate; biosafety cabinet, Nuaire; thermostatic CO2 incubator, Thermo; microplate reader, PerkinElmer; LC-MS/MS, AB SCIEX. Method: The purpose of this study was to determine the two-way permeability of the compounds and evaluate whether they are effluxed and transported by P-glycoprotein (P-gp) using a Caco-2 monolayer cell model. In the experiment, Caco-2 cells were seeded into a 96-well cell plate and cultured for 24 consecutive days for the transport experiment. The compounds were administered bidirectionally at a concentration of 2.00 µM, with or without verapamil. After 120 min of incubation, the samples at the apical end A and the basal end B were collected. The content of the test samples in each sample was measured using the liquid chromatography-tandem mass spectrometry (LC-MS/MS) method. The apparent permeability coefficient and the efflux rate were calculated. Two experimental systems were used successively in this part, with the reference compound (PF-07104091) included. Table 4. Permeability test results

[2] = as above; assay type: in vitro ADME; details: human, Caco-2, Table 4 experimental system, Caco-2, 2.00 µM
Description: as §2

[3] = In-vitro liver microsomal stability, dog; assay type: in vitro ADME; details: dog liver microsomes 0.5 mg/mL, 1 µM, NADPH 1 mM, 37 °C
Description: as §1

CDK2/Cyclin E1 = target: T1, CDK2/Cyclin E1 (Homo sapiens, UniProt P24941); assay: CDK2 kinase antagonistic activity assay (TR-FRET); assay type: biochemical; details: TR-FRET; peptide mix containing 10 µM ATP; 90 min at 23 °C; read-out: CDK2/Cyclin E1 IC50
T1 construct: purchased Invitrogen PV6296
Description: (§3) Compounds were dissolved in DMSO and serially diluted 3-fold to generate 11 concentrations. 100 nL of each compound was added to 384-well plates, followed by the addition of 5 µL of 2× CDK2/Cyclin E1 or CDK1/Cyclin B enzyme mixed solution. 5 µL of buffer (50 mM Hepes (pH 7.5), 10 mM MgCl2, 1 mM EDTA, 0.01% Brij-35, 2 mM DTT (prepared freshly)) was added to the complete inhibition control wells. The plates were centrifuged at 1000 rpm for 30 s and incubated at 23 °C for 15 min. Then, 5 µL of 2× MLight-MBP peptide (containing 10 µM ATP) was added to each well of each assay plate. The plates were centrifuged again at 1000 rpm for 30 s and incubated at 23 °C for 90 min.
After the incubation was completed, the reaction was stopped with a detection buffer containing 15 mM EDTA and 2 nM Eu-anti-P-MBP antibody. After centrifugation at 1000 rpm for about 1 min, the plates were incubated at 23 °C for 60 min and read on Perkin Elmer Envision. The TR-FRET ratio (value at 665 nm/value at 615 nm) was automatically calculated by Envision.
(§4) The IC50 values of the compounds were calculated using GraphPad Prism nonlinear fitting equation. Table 1. Kinase activity assay

CDK1/Cyclin B = target: T2, CDK1/Cyclin B (Homo sapiens, UniProt P06493); assay: CDK1 kinase activity assay (TR-FRET); assay type: biochemical
T2 construct: purchased Invitrogen PR4768C
Description: as §3
After the incubation was completed, the reaction was stopped with a detection buffer containing 15 mM EDTA and 2 nM Eu-anti-P-MBP antibody. After centrifugation at 1000 rpm for about 1 min, the plates were incubated at 23 °C for 60 min and read on Perkin Elmer Envision.
as §4

[4] = In-vitro liver microsomal stability, rat; assay type: in vitro ADME; details: SD rat liver microsomes 0.5 mg/mL, 1 µM, NADPH 1 mM, 37 °C
Description: as §1

[5] = TR-FRET, peptide mix containing 10 µM ATP, 90 min at 23 °C, read-out: CDK1/Cyclin B1 IC50

T2 sequence (P06493 whole entry): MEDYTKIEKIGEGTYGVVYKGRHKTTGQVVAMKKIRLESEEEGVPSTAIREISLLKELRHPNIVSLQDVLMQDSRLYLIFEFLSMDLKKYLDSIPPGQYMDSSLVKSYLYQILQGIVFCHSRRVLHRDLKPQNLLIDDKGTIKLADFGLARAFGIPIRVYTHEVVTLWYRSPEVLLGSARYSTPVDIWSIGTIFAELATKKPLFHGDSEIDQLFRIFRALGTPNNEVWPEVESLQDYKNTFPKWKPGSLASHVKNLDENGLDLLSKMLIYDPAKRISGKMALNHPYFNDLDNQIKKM
T2 sequence (P14635 whole entry partner): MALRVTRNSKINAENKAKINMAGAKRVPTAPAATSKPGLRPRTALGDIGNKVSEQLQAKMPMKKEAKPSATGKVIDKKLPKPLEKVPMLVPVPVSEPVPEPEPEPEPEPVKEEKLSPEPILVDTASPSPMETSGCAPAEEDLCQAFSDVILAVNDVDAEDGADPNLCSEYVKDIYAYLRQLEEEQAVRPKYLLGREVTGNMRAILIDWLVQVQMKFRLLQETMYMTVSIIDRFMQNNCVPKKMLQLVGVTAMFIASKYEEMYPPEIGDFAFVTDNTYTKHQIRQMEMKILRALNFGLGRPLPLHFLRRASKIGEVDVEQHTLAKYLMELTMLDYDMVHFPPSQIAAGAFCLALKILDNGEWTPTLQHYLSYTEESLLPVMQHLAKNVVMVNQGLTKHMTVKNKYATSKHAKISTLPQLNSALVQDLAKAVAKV

| SMILES | IC50 (HCT116 cells) [nM] | Remaining amount% at 60 min Human [1] [%] | efflux ratio at 120 min, 2 µM (P-glycoprotein (P-gp)) | Papp A→B at 120 min, 2 µM [2] [×10⁻⁶ cm/s] | Papp B→A at 120 min, 2 µM [2] [×10⁻⁶ cm/s] | Remaining amount% at 60 min Dog [3] [%] | IC50 (CDK2/Cyclin E1) [nM] | IC50 (CDK1/Cyclin B; [5]) [nM] | Remaining amount% at 60 min Rat [4] [%] | IC50 (CDK1/Cyclin B) [nM] |
| --- | --- | --- | --- | --- | --- | --- | --- | --- | --- | --- |
| COCc1cc(C(=O)Nc2cc([C@H]3CC[C@@H](OC(=O)NCC=C(F)F)C3)[nH]n2)n(C)n1 [Compound 3] | 2090 | 90.9 | 150 | 0.218 | 32.8 | 86.7 | 1.22 | 78.2 | 74.6 |  |
| COCc1cc(C(=O)Nc2cc([C@H]3C[C@@H](F)[C@@H](OC(=O)NC(C)C)C3)[nH]n2)n(C)n1 [Compound 11] | 1610 | 105 |  |  |  | 99 | 1.07 |  | 104 |  |
| COCc1cc(C(=O)Nc2cc([C@H]3CC[C@@H](OC(=O)NC45CC6CC(CC(C6)C4)C5)C3)[nH]n2)n(C)n1 [Compound 6] | 2640 | 11.0 | 48.7 | 0.54 | 26.3 | 30.3 | 0.95 |  | 1.80 | 78.4 |
| CC(C)NC(=O)O[C@@H]1CC[C@H](c2cc(NC(=O)c3cc(CS(C)(=O)=O)nn3C)n[nH]2)C1 [Compound 7] | 2250 | 93.2 | > 55.4 | < 0.26 | 14.4 | 101 | 0.64 | 90 | 101 |  |
| CC(C)NC(=O)O[C@@H]1CC[C@H](c2cc(Nc3ccc(N4CCN(C)CC4)cc3)n[nH]2)C1 [Compound 9] | 2620 | 93.2 | 84.2 | 0.52 | 43.8 | 7.34 | 4.38 | 138 | 27.7 |  |
| COCc1cc(C(=O)Nc2cc([C@H]3CC[C@@H](OC(=O)N4CC5(CCN(C)CC5)C4)C3)[nH]n2)n(C)n1 [Compound 10] | 7110 | 103 |  |  |  | 95 | 8.71 |  | 92 |  |
| COCc1cc(C(=O)Nc2cc([C@H]3CC[C@@H](OC(=O)N(C)C4CCC(=C(F)F)CC4)C3)[nH]n2)n(C)n1 (stereo partly shown) [Compound 2] | 2470 | 5.38 | 199 | 0.218 | 43.4 | 12.7 | 5.15 | 42.5 | 3.87 |  |
| Cn1nc(CS(C)(=O)=O)cc1C(=O)Nc1cc([C@@H]2C[C@H](OC(=O)N3CCC3(C)C)CO2)[nH]n1 [Compound 27] | 3010 | 91.3 |  |  |  | 96.7 | 9.32 | 54.2 | 81.2 |  |
| COCc1cc(C(=O)Nc2cc([C@H]3CC[C@@H](OC(=O)NC(C)C#N)C3)[nH]n2)n(C)n1 (stereo partly shown) [Compound 1] | 3660 | 80.3 | > 40.2 | < 0.48 | 19.3 | 92.0 | 2.24 | 78.2 | 85.0 |  |
| C#CC(C)NC(=O)O[C@@H]1CC[C@H](c2cc(NC(=O)c3cc(COC)nn3C)n[nH]2)C1 (stereo partly shown) [Compound 4] | 2340 | 93.5 | 390 | 0.0791 | 30.8 | 77.9 | 2.58 | 460 | 77.9 |  |
